Source: patent publication US8299048B2, “Hexahydrocyclopentyl[f]indazole sulfonamides and derivatives thereof as selective glucocorticoid receptor modulators” (Merck Sharp & Dohme Corp., priority 2008, dated 2012)

How the values were obtained:
human GR [1] = molecular target: T1, human GR (Homo sapiens, UniProt P04150); experiment: Trans-Activation Modulation of Glucocorticoid Receptor (GRAMMER), MMTV-LUC reporter, agonist mode; format: cell-based; design: endogenous in cells; details: for Emax: A549, A549 cells, maximum activity, read-out: Transactivation A549 Cells GRAMMER Emax; for EC50: A549 cells, inflection point, read-out: Transactivation A549 Cells GRAMMER IP
T1 sequence (P04150 1-777): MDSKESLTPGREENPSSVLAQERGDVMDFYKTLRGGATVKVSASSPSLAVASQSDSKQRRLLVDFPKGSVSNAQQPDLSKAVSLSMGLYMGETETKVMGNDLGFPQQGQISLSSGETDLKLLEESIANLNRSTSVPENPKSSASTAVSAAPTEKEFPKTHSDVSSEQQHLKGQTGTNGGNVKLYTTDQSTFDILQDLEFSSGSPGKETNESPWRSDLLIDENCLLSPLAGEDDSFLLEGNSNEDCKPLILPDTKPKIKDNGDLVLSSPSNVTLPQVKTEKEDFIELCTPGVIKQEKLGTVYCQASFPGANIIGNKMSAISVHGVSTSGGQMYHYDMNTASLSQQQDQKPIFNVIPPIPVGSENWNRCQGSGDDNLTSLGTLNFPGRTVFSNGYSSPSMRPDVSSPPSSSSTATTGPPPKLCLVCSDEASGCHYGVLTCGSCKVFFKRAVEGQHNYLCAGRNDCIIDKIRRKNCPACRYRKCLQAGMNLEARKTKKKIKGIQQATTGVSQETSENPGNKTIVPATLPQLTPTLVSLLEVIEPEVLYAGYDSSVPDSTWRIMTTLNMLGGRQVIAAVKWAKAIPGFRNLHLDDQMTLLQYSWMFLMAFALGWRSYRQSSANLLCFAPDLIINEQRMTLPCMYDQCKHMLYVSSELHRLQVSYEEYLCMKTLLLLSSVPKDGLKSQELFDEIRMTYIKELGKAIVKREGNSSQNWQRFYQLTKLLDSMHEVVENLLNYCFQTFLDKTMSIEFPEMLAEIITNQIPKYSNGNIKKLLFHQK
Method in brief: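 Readout is luciferase from a modified MMTV LTR promoter after 24 h compound exposure alongside 10 nM dexamethasone (100% activity reference), DMSO ≤1%.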

human GR [2] = molecular target: T1, human GR; experiment: Transrepression Assay (GITAR), TNFα-β-lactamase reporter in U937 cells; format: cell-based; design: U937 cells contain an endogenous glucocorticoid receptor (GR); endogenous in cells; host or cells: U937 cells stably transfected with the TNF-alpha promoter/beta-lactamase reporter; details: for GITAR > GRAMM % SEP: GITAR Emax minus GRAMMER Emax; for EC50: U937 cells, inflection point, read-out: Transrepression U937 Cells GITAR IP
Method in brief: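 U937 cells with endogenous GR, stably carrying TNFα promoter–β-lactamase, preincubated with compound 30–45 min at 37° C, then stimulated with PMA 5 ng/ml and LPS 100 ng/ml (final) ~18 hr. Read-out via CCF2-AM loading; repression by 100 nM dexamethasone set as 100%.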

[3] = U-937, U937 cells, maximum activity, read-out: Transrepression U937 Cells GITAR Emax
[4] = U-937, activity repressed by 100 nM dexamethasone alone set as 100%, read-out: maximal activity in the transrepression (GITAR) assay

| SMILES | Emax (human GR [1]) [%] | EC50 (human GR [1]) [nM] | GITAR > GRAMM % SEP (human GR [2]) [%] | EC50 (human GR [2]) [nM] | Emax (human GR [2]; [3]) [%] | Emax (human GR [2]; [4]) [%] |
| --- | --- | --- | --- | --- | --- | --- |
| C[C@]12Cc3cnn(-c4ccc(F)cc4)c3C=C1CC[C@@H]2CN(CCc1ccccn1)S(=O)(=O)Cc1ccccc1C(F)(F)F [Example 153, N-{[(4αR,5S)-1-(4-fluorophenyl)-4α-methyl-1,4,4α,5,6,7-hexahydrocyclopenta[f]indazol-5-yl]methyl}-N-(2-pyridin-2-ylethyl)-1-[2-(trifluoromethyl)phenyl]methanesulfonamide] | 15.2 | 315 | 37.2 | 263 | 52.4 | > 5 |
| C[C@]12Cc3cnn(-c4ccc(F)cc4)c3C=C1CC[C@@H]2CN(CC(O)C(F)F)S(=O)(=O)Cc1cccnc1 (stereo partly drawn) [Example 154, N-(3,3-difluoro-2-hydroxypropyl)-N-{[(4αR,5S)-1-(4-fluorophenyl)-4α-methyl-1,4,4α,5,6,7-hexahydrocyclopenta[f]indazol-5-yl]methyl}-1-pyridin-3-ylmethanesulfonamide] | 17.9 | 509 | 48.7 | 616 | 66.5 | > 5 |
| CCCS(=O)(=O)N(CC(O)C(F)F)C[C@H]1CCC2=Cc3c(cnn3-c3ccc(F)cc3)C[C@@]21C (stereo partly drawn) [Example 155, N-(3,3-difluoro-2-hydroxypropyl)-N-{[(4αR,5S)-1-(4-fluorophenyl)-4α-methyl-1,4,4α,5,6,7-hexahydrocyclopenta[f]indazol-5-yl]methyl}propane-1-sulfonamide] | 29 | 989 | 32.2 | 1090 | 61.3 | > 5 |
| Cn1cc(S(=O)(=O)N(CC(O)C(F)F)C[C@H]2CCC3=Cc4c(cnn4-c4ccc(F)cc4)C[C@@]32C)c(C(F)(F)F)n1 (stereo partly drawn) [Example 156, N-(3,3-difluoro-2-hydroxypropyl)-N-{[(4αR,5S)-1-(4-fluorophenyl)-4α-methyl-1,4,4α,5,6,7-hexahydrocyclopenta[f]indazol-5-yl]methyl}-1-methyl-3-(trifluoromethyl)-1H-pyrazole-4-sulfonamide] | 4.5 | 193 | 15.0 | 229 | 19.5 | > 5 |
| Cn1cc(S(=O)(=O)N(CC(O)c2ccccn2)C[C@H]2CCC3=Cc4c(cnn4-c4ccc(F)cc4)C[C@@]32C)c(C(F)(F)F)n1 (stereo partly drawn) [Example 157, N-{[(4αR,5S)-1-(4-fluorophenyl)-4α-methyl-1,4,4α,5,6,7-hexahydrocyclopenta[f]indazol-5-yl]methyl}-N-(2-hydroxy-2-pyridin-2-ylethyl)-1-methyl-3-(trifluoromethyl)-1H-pyrazole-4-sulfonamide] | 63.6 | 124 | 30.0 | 29.1 | 93.6 | > 5 |
| C[C@]12Cc3cnn(-c4ccc(F)cc4)c3C=C1CC[C@@H]2CN(CC=O)S(=O)(=O)c1ccccc1F [Example 158, 2-fluoro-N-{[(4αR,5S)-1-(4-fluorophenyl)-4α-methyl-1,4,4α,5,6,7-hexahydrocyclopenta[f]indazol-5-yl]methyl}-N-(2-oxoethyl)benzenesulfonamide] | 36.2 | 747 | 41.6 | 564 | 77.8 | > 5 |
| COC(=O)c1ccccc1CCN(C[C@H]1CCC2=Cc3c(cnn3-c3ccc(F)cc3)C[C@@]21C)S(=O)(=O)CC(F)(F)F [Example 159, methyl 2-(2-{{[(4αR,5S)-1-(4-fluorophenyl)-4α-methyl-1,4,4α,5,6,7-hexahydrocyclopenta[f]indazol-5-yl]methyl}[(2,2,2-trifluoroethyl)sulfonyl]amino}ethyl)benzoate] | 28.9 | 367 | 5.2 | 551 | 34.1 | > 5 |
| COC(=O)c1cc(Cl)ccc1CCN(C[C@H]1CCC2=Cc3c(cnn3-c3ccc(F)cc3)C[C@@]21C)S(=O)(=O)CC(F)(F)F [Example 160, methyl 5-chloro-2-(2-{{[(4αR,5S)-1-(4-fluorophenyl)-4α-methyl-1,4,4α,5,6,7-hexahydrocyclopenta[f]indazol-5-yl]methyl}[(2,2,2-trifluoroethyl)sulfonyl]amino}ethyl)benzoate] | 4.3 | 547 | 10.8 | 508 | 15.1 | > 5 |
| Cc1noc(C)c1S(=O)(=O)NC[C@H]1CCC2=Cc3c(cnn3-c3ccc(F)cc3)C[C@@]21C [Example 161, N-{[(4αR,5S)-1-(4-fluorophenyl)-4α-methyl-1,4,4α,5,6,7-hexahydrocyclopenta[f]indazol-5-yl]methyl}-3,5-dimethylisoxazole-4-sulfonamide] | 18.3 | 419 | 26.7 | 930 | 45 | > 5 |
| COC(=O)c1ccccc1CS(=O)(=O)N(CC(O)C(F)(F)F)C[C@H]1CCC2=Cc3c(cnn3-c3ccc(F)cc3)C[C@@]21C (stereo partly drawn) [Example 162, methyl 2-({[{[(4αR,5S)-1-(4-fluorophenyl)-4α-methyl-1,4,4α,5,6,7-hexahydrocyclopenta[f]indazol-5-yl]methyl}(3,3,3-trifluoro-2-hydroxypropyl)amino]sulfonyl}methyl)benzoate] | 87.1 | 323 | 3.7 | 202 | 90.8 | > 5 |
| C[C@]12Cc3cnn(-c4ccc(F)cc4)c3C=C1CC[C@@H]2CN(CCc1ccccc1CO)S(=O)(=O)CC(F)(F)F [Example 163, 2,2,2-trifluoro-N-{[(4αR,5S)-1-(4-fluorophenyl)-4α-methyl-1,4,4α,5,6,7-hexahydrocyclopenta[f]indazol-5-yl]methyl}-N-{2-[2-(hydroxymethyl)phenyl]ethyl}ethanesulfonamide] | 48.4 | 241 | 38.6 | 342 | 86.9 | > 5 |
| C[C@]12Cc3cnn(-c4ccc(F)cc4)c3C=C1CC[C@@H]2CN(CC(O)C(F)(F)F)S(=O)(=O)Cc1ccccc1C(=O)O (stereo partly drawn) [Example 164, 2-({[{[(4αR,5S)-1-(4-fluorophenyl)-4α-methyl-1,4,4α,5,6,7-hexahydrocyclopenta[f]indazol-5-yl]methyl}(3,3,3-trifluoro-2-hydroxypropyl)amino]sulfonyl}methyl)benzoic acid] | 58.3 | 1080 | 23.0 | 1250 | 81.3 | > 5 |
| C[C@]12Cc3cnn(-c4ccc(F)cc4)c3C=C1CC[C@@H]2CN(CCc1ccccn1)S(=O)(=O)Cc1ccccn1 [Example 165, N-{[(4αR,5S)-1-(4-fluorophenyl)-4α-methyl-1,4,4α,5,6,7-hexahydrocyclopenta[f]indazol-5-yl]methyl}-1-pyridin-2-yl-N-(2-pyridin-2-ylethyl)methanesulfonamide] | 37.8 | 306 | 23.4 | 286 | 61.1 | > 5 |
| C[C@]12Cc3cnn(-c4ccc(F)cc4)c3C=C1CC[C@@H]2CN(CCc1ccccn1)S(=O)(=O)Cc1ccncc1 [Example 166, N-{[(4αR,5S)-1-(4-fluorophenyl)-4α-methyl-1,4,4α,5,6,7-hexahydrocyclopenta[f]indazol-5-yl]methyl}-1-pyridin-4-yl-N-(2-pyridin-2-ylethyl)methanesulfonamide] | 56.4 | 303 | 15.3 | 549 | 71.7 | > 5 |
